According to ChEMBL document CHEMBL5338773, “First-in-Class Selective Inhibitors of the Lysine Acetyltransferase KAT8” (J Med Chem, 2023):
Calls of active or inactive are those of the source. The calls are words filed in the database; no cut-off is given here.

Tests used:
NCI-H1299 [1] = test: Induction of autophagy in human NCI-H1299 cells stably expressing EGFP-LC3 assessed as increase in EGFP-LC3 puncta formation at 10 to 100 uM incubated for 48 hrs by Fluorescence microscopy; format: functional, cell-based; settings: dose 10-100 µM
NCI-H1299 [2] = test: Induction of autophagy in human NCI-H1299 cells stably expressing EGFP-LC3 assessed as increase in p62 expression level at 10 to 100 uM incubated for 48 hrs by Western blot analysis; format: functional, cell-based; settings: dose 10-100 µM
NCI-H460 = test: Antiproliferative activity against human NCI-H460 cells assessed as cell proliferation inhibition at 10 to 100 uM incubated for 72 hrs by MTT assay; format: functional, cell-based; settings: dose 10-100 µM
NCI-H1299 [3] = test: Antiproliferative activity against human NCI-H1299 cells assessed as cell proliferation inhibition at 10 to 100 uM incubated for 72 hrs by MTT assay; format: functional, cell-based; settings: dose 10-100 µM
[4] = target: Histone acetyltransferase p300 (Homo sapiens) (UniProt Q09472); test: Inhibition of recombinant human KAT3B (1287 to 1673 residues) using histone H3 peptide and [3H]-acetyl-coA as substrates at 200 uM incubated for 1 hrs by liquid scintillation counter analysis
Sequence of Histone acetyltransferase p300 (Homo sapiens) (Q09472 whole entry, the tested form may be a part): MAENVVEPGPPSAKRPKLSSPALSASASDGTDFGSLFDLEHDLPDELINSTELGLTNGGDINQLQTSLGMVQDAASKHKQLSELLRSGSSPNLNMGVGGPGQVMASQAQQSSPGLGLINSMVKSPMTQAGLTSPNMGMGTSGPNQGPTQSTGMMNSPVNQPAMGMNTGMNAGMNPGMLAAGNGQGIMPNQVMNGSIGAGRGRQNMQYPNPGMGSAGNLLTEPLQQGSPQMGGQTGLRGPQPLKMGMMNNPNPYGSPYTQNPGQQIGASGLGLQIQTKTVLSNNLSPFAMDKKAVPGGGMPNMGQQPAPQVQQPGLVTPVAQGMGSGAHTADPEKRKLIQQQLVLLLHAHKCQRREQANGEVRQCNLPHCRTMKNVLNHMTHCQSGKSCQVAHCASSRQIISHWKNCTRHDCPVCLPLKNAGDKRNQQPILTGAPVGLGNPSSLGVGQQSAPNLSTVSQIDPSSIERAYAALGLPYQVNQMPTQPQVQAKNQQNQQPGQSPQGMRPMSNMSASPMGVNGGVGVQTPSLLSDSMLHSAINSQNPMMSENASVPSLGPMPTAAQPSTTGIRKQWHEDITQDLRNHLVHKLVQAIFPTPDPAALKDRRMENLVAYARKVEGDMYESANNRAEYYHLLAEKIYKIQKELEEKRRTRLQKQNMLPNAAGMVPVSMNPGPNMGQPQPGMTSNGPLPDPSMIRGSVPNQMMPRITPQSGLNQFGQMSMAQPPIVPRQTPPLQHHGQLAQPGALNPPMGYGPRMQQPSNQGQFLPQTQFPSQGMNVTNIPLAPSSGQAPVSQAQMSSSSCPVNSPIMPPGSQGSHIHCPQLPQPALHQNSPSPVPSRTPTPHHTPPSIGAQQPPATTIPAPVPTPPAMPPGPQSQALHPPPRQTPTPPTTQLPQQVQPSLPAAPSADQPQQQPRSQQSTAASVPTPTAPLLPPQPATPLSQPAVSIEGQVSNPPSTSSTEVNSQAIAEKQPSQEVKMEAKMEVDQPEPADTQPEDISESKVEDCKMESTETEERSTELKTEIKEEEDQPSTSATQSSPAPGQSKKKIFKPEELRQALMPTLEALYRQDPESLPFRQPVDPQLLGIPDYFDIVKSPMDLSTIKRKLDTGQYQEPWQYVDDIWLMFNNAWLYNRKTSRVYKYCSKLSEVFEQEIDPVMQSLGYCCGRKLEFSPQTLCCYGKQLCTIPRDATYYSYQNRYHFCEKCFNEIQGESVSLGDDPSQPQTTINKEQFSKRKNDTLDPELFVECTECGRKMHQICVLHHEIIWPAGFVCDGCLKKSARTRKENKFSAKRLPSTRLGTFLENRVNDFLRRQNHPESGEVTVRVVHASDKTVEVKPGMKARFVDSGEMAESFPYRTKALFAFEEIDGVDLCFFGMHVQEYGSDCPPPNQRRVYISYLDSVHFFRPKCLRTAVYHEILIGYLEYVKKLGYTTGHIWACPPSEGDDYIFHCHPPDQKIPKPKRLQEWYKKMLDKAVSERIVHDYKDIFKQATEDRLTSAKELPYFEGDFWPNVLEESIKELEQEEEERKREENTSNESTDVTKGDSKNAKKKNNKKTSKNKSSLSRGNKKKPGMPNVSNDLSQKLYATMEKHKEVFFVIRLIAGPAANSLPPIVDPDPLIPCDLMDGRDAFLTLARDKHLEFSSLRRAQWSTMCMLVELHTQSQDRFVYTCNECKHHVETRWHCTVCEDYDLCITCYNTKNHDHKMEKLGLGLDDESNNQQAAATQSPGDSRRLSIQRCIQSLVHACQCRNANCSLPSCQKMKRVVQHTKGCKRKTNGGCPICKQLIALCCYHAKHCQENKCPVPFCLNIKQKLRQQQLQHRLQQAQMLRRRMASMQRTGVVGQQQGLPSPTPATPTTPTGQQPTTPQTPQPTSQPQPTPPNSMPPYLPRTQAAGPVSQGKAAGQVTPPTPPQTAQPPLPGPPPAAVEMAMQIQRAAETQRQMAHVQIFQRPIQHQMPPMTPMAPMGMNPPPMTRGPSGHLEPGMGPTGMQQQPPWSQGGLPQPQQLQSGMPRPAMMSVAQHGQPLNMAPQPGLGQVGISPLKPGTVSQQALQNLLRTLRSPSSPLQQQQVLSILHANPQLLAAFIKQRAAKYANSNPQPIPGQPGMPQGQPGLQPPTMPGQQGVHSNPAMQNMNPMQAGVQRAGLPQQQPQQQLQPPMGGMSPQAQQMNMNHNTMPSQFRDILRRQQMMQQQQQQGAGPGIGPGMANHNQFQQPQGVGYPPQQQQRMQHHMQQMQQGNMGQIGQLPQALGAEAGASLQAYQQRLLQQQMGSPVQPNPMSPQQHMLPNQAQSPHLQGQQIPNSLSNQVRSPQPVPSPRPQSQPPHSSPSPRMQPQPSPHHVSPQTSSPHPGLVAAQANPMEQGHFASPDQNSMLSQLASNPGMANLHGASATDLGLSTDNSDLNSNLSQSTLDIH

[5] = target: T1, Histone acetyltransferase KAT8 (Homo sapiens) (UniProt Q9H7Z6); test: Inhibition of human KAT8 in human HT-29 cells assessed as change in KAT8 expression level at 10 to 50 uM incubated for 24 hrs by Western blot analysis; format: cell-based; settings: dose 10-50 µM
T1 sequence (whole entry): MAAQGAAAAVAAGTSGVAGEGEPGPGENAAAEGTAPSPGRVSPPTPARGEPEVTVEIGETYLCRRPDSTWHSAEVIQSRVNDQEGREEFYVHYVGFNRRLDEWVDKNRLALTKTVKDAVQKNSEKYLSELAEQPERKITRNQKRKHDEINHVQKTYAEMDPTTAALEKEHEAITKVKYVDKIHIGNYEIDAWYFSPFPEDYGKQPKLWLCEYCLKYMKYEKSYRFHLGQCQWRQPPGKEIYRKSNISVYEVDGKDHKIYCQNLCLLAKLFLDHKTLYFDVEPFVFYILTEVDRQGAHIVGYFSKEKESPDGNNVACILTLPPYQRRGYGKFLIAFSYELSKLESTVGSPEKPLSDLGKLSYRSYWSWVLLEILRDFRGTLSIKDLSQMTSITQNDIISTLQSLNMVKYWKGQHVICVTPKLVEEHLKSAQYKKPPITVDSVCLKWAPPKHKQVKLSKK

HeLa [6] = test: Induction of apoptosis in human HeLa cells assessed as slight increase in apoptotic cells at 50 to 100 uM incubated for 72 hrs by Annexin V-FITC staining based flow cytometry; format: functional, cell-based; settings: dose 50-100 µM
U-937 = test: Antiproliferative activity against human U-937 cells assessed as cell proliferation inhibition at 10 to 100 uM incubated for 72 hrs by MTT assay; format: functional, cell-based; settings: dose 10-100 µM
[7] = target: Histone acetyltransferase KAT2A (Homo sapiens) (UniProt Q92830); test: Inhibition of recombinant human KAT2A (323 to 837 residues) using histone H3 peptide and [3H]-acetyl-coA as substrates at 200 uM incubated for 1 hrs by liquid scintillation counter analysis
Sequence of Histone acetyltransferase KAT2A (Homo sapiens) (Q92830 2-837 limits assumed): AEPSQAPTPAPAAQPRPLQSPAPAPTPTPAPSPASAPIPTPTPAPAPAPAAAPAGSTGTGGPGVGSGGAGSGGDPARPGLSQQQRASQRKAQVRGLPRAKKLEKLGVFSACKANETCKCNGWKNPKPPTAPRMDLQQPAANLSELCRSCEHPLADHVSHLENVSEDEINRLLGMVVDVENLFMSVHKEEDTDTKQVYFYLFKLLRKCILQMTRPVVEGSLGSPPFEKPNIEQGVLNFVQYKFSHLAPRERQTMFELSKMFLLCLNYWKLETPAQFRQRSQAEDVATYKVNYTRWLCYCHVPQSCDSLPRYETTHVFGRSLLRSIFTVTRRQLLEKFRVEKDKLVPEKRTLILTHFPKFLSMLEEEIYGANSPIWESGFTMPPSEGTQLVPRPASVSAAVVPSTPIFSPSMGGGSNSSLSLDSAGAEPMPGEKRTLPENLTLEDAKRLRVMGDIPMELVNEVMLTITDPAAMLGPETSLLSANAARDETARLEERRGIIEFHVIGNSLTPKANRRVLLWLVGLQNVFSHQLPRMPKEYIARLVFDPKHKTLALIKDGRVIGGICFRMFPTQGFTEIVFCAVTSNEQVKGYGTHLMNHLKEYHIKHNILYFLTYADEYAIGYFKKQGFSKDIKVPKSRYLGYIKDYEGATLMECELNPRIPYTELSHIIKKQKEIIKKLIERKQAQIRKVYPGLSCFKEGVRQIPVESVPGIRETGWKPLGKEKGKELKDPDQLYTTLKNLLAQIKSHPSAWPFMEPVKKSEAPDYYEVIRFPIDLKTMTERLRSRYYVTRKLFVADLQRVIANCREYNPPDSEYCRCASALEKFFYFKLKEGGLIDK

HCT-116 [8] = test: Induction of cell cycle arrest in human HCT-116 cells assessed as increase in number of cells at sub-G1 phase with DNA hypodiploid at 50 uM incubated for 72 hrs by PI-staining based flow cytometry (Rvb=2%); format: functional
Homo sapiens [9] = species: Homo sapiens; test: Inhibition of human recombinant KDAC8 using Boc-Lys-(Ac)-AMC as substrate at 50 to 100 uM incubated for 45 mins by fluorescence microplate reader analysis; settings: dose 50-100 µM
[10] = target: Histone deacetylase 3 (Homo sapiens) (UniProt O15379); test: Inhibition of human recombinant KDAC3 using Boc-Lys-(Ac)-AMC as substrate at 50 to 100 uM incubated for 45 mins by fluorescence microplate reader analysis; settings: dose 50-100 µM
Sequence of Histone deacetylase 3 (Homo sapiens) (O15379 whole entry): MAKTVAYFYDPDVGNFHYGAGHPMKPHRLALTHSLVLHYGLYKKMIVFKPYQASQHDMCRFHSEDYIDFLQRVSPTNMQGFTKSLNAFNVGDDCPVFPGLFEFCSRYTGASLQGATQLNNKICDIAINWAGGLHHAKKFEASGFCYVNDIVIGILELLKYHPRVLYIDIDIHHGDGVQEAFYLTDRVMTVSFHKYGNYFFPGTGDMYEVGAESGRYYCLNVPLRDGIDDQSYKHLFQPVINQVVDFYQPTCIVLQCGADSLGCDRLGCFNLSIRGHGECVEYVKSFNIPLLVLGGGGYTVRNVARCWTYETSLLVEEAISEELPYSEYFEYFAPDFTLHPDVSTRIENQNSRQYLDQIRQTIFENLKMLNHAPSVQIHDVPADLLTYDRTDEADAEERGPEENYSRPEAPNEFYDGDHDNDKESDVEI

[11] = GSH reactivity of compound at pH 7.5 buffer at 0.5 mM and measured upto 24 hrs in presence of DTT and BME by HPLC analysis; format: physicochemical; settings: pH 7.5, 24 h, 500 µM
HeLa [12] = test: Induction of cell cycle arrest in human HeLa cells assessed as increase in number of cells at sub-G1 phase with DNA hypodiploid at 50 uM incubated for 72 hrs by PI-staining based flow cytometry (Rvb=2%); format: functional
[13] = target: T1, Histone acetyltransferase KAT8 (Homo sapiens); test: Binding affinity to KAT8 in human HT-29 cells assessed as stabilization of enzyme against thermal induced aggregation at 59 degreeC at 100 nM incubated for 4 hrs by Western blot analysis; format: cell-based
Homo sapiens [14] = species: Homo sapiens; test: Inhibition of human recombinant KDAC1 using Boc-Lys-(Ac)-AMC as substrate at 50 to 100 uM incubated for 45 mins by fluorescence microplate reader analysis; settings: dose 50-100 µM
[15] = Thiol reactivity of compound at pH 7.5 buffer at 0.5 mM and measured upto 24 hrs in presence of DTT and BME by HPLC analysis; format: physicochemical; settings: pH 7.5, 24 h, 500 µM
[16] = target: Histone deacetylase 2 (Homo sapiens) (UniProt Q92769); test: Inhibition of human recombinant KDAC2 using Boc-Lys-(Ac)-AMC as substrate at 50 to 100 uM incubated for 45 mins by fluorescence microplate reader analysis; settings: dose 50-100 µM
Sequence of Histone deacetylase 2 (Homo sapiens) (Q92769 whole entry): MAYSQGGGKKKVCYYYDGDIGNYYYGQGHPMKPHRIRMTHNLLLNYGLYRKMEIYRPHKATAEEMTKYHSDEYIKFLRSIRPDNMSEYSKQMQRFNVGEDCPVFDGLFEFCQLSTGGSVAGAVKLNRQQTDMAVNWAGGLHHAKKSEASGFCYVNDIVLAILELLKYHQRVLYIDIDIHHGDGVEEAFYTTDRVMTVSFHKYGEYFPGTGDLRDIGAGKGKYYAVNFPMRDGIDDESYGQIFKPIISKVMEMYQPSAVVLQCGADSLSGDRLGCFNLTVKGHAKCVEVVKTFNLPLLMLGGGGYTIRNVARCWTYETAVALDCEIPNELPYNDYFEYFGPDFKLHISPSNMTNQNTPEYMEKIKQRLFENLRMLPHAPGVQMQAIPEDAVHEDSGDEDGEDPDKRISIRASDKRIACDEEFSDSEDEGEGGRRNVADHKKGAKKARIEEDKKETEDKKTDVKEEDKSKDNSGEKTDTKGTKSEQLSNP

MCF7 = test: Antiproliferative activity against human MCF7 cells assessed as cell proliferation inhibition at 10 to 100 uM incubated for 72 hrs by MTT assay; format: functional, cell-based; settings: dose 10-100 µM
HCT-116 [17] = test: Antiproliferative activity against human HCT-116 cells assessed as cell proliferation inhibition at 10 to 100 uM incubated for 72 hrs by MTT assay; format: functional, cell-based; settings: dose 10-100 µM
[18] = target: T1, Histone acetyltransferase KAT8 (Homo sapiens); test: Inhibition of human KAT8 in human HT-29 cells assessed as decrease in histone H4K16 acetylation level at 10 to 50 uM incubated for 24 hrs by Western blot analysis; format: cell-based; settings: dose 10-50 µM
[19] = target: T1, Histone acetyltransferase KAT8 (Homo sapiens); test: Inhibition of human KAT8 in human HT-29 cells assessed as change in histone H3K27 acetylation level by measuring fluorescence intensity in nucleus at 50 uM incubated for 24 hrs by DAPI staining based immunofluorescence analysis; format: cell-based
[20] = target: T1, Histone acetyltransferase KAT8 (Homo sapiens); test: Time dependent inhibition of N-terminal 6His tagged KAT8 (173 to 458 residues) (unknown origin) expressed in Escherichia coli BL21(DE3) using biotinylated histone H4 peptide and [3H]Acetyl-CoA as substrates at 200 uM preincubated for 5 to 120 mins followed by substrate addition and measured after 4 hrs by MicroBeta microplate counter analysis; settings: time 245-360 min
[21] = Cytotoxicity against human Intestinal epithelial cells assessed as inhibition of cell viability at 25 to 200 uM incubated for 72 hrs by MTT assay; format: toxicity, cell-based; settings: dose 25-200 µM
HCT-116 [22] = test: Induction of apoptosis in human HCT-116 cells assessed as increase in apoptotic cells at 100 uM incubated for 72 hrs in presence of chloroquine by Annexin V-FITC staining based flow cytometry; format: functional, cell-based
NCI-H1299 [23] = test: Induction of autophagy in human NCI-H1299 cells stably expressing EGFP-LC3 assessed as increase in autophagosome formation by measuring fluorescence spots at 10 to 100 uM incubated for 48 hrs by Fluorescence microscopy; format: functional, cell-based; settings: dose 10-100 µM
HT-29 = test: Effect on cell cycle progression in human HT-29 cells assessed as changes in cell cycle stages at 50 to 100 uM incubated for 72 hrs by PI-staining based flow cytometry; format: functional; settings: dose 50-100 µM

inhibition [4] | inhibition [5] | inhibition [7] | inhibition (Homo sapiens [9]) | inhibition [10] | Drug metabolism [11] | Activity [13] | inhibition (Homo sapiens [14]) | Drug metabolism [15] | inhibition [16] | Structure (SMILES) | Activity (NCI-H1299 [1]) | Activity (NCI-H1299 [2]) | Activity (NCI-H460) | Activity (NCI-H1299 [3]) | Activity (HeLa [6]) | Activity (U-937) | Activity (HCT-116 [8]) [%] | Activity (HeLa [12]) [%] | Activity (MCF7) | Activity (HCT-116 [17]) | other results
inactive | inactive | inactive | inactive | inactive | Not Active | Active | inactive | Not Active | inactive | CC1=NN(c2ccc(C(=O)O)cc2)C(=O)/C1=C\c1ccc[nH]1 | Active | Active | Active | Dose-Dependent Effect | Active | Dose-Dependent Effect | 3 | 2 | inactive | Dose-Dependent Effect | inhibition [18]: Active; inhibition [19]: inactive; inhibition [20]: inactive; Activity [21]: Non-Toxic; Activity (HCT-116 [22]): Active; Activity (NCI-H1299 [23]): Active; Activity (HT-29): inactive
inactive | inactive | inactive | inactive | inactive | Not Active | Active | inactive | Not Active | inactive | O=C(O)c1ccc(N2N=C(c3ccccc3)/C(=C/c3ccc[nH]3)C2=O)cc1 | Active | Active | inactive | Dose-Dependent Effect | Active | Dose-Dependent Effect | 7 | 2 | inactive | Dose-Dependent Effect | inhibition [18]: Active; inhibition [19]: inactive; inhibition [20]: inactive; Activity [21]: Non-Toxic; Activity (HCT-116 [22]): Active; Activity (NCI-H1299 [23]): Active; Activity (HT-29): inactive
